Laboratory results from BindingDB's records for doi:10.1016/j.bmc.2004.09.036 (University of Alabama At Birmingham, 2005).
pKi: −log10 of the molar value.

Experiments:
Assay in all cases: Protease Inhibition Assay
[1] = biological target: T1, Genome polyprotein [1066-1250,R1182K]/[1394-1440,K1405R,D1408E] (dengue virus type 2, UniProt P14340+P27914, D1408E/K1405R/R1182K); conditions: pH 8.5; 23 °C
T1 construct: 1066-1250; 1394-1440
Experimental: (§1) All proteases were assayed by monitoring the cleavage of peptide substrate with fluorescent reporter at room temperature with a microtiter plate spectrofluorometer. Three different concentrations of inhibitors were used for calculating Ki values. Kinetic data were measured with an excitation wavelength of 390nm and emission wavelength of 460nm. From the initial velocities of the reactions Ki values were calculated by nonlinear regression method using the program EZ-fit (Perella Scientific).

[2] = biological target: T2, Genome polyprotein [1424-1463]/[1502-1685] (West Nile virus, UniProt P06935); conditions: pH 8.5; 23 °C
T2 construct: 1424-1463; 1502-1685
T2 sequence (P06935 whole entry) 1: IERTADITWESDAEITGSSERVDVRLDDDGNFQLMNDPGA
T2 sequence (P06935 whole entry) 2: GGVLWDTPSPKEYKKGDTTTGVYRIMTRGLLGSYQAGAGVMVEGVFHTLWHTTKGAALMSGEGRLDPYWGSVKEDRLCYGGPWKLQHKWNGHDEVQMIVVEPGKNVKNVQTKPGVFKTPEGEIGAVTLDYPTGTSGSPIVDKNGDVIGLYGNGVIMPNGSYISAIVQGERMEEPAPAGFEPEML
Experimental: as §1

Serine protease 1 = biological target: T3, Serine protease 1 (Bos taurus, UniProt P00760); conditions: pH 7.6; 23 °C
T3 sequence (P00760 whole entry): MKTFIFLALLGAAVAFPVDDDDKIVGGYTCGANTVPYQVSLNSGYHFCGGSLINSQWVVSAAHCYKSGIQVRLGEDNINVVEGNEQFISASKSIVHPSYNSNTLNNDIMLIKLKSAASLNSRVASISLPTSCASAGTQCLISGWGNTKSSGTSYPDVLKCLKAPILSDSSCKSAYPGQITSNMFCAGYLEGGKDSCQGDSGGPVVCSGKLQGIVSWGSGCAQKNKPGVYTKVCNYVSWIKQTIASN
Experimental: as §1

T1 sequence (P14340 1394-1440, looked up, stated change not applied): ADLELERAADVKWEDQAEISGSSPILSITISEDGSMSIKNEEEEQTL
T1 sequence (P27914 1066-1250, looked up, stated change not applied): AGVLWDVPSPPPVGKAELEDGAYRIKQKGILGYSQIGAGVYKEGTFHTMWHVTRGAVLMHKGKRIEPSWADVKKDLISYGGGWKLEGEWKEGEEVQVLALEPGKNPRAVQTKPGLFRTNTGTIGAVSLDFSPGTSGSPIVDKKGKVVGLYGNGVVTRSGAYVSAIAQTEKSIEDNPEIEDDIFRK

Structure (SMILES)	pKi [1]	pKi [2]	pKi (Serine protease 1)
NC(N)=NN=Cc1ccc(C=NN=C(N)N)cc1 [biguanidine, 1]	4.36	4.46	4.06
N=C(N)NN=CC=NN=C(N)N [biguanidine, 2]	3.37	3.47	3.81
NC(N)=NNc1ccc(NNC(N)N)cc1 [biguanidine, 3]	2.75	2.96	4.29
NC(N)=NN=C1C(=O)Nc2ccccc21 [guanidine, 4]	4.64	4.80	5.40
Cc1ccc(C(=NN=C(N)N)P(O)O)cc1 [guanidine, 5]	4.85	4.89	5.49
